This passage reports IC50 results from US11612604B2, “Methods of treating cancer with PLK4 inhibitors” (LUDWIG INSTITUTE FOR CANCER RESEARCH LTD, priority 2017, dated 2023).

A value given as a limit tells only on which side of the number the result lay.

The target of the assay is T1, PLK4 (Homo sapiens, UniProt O00444).
T1 sequence (O00444 1-970): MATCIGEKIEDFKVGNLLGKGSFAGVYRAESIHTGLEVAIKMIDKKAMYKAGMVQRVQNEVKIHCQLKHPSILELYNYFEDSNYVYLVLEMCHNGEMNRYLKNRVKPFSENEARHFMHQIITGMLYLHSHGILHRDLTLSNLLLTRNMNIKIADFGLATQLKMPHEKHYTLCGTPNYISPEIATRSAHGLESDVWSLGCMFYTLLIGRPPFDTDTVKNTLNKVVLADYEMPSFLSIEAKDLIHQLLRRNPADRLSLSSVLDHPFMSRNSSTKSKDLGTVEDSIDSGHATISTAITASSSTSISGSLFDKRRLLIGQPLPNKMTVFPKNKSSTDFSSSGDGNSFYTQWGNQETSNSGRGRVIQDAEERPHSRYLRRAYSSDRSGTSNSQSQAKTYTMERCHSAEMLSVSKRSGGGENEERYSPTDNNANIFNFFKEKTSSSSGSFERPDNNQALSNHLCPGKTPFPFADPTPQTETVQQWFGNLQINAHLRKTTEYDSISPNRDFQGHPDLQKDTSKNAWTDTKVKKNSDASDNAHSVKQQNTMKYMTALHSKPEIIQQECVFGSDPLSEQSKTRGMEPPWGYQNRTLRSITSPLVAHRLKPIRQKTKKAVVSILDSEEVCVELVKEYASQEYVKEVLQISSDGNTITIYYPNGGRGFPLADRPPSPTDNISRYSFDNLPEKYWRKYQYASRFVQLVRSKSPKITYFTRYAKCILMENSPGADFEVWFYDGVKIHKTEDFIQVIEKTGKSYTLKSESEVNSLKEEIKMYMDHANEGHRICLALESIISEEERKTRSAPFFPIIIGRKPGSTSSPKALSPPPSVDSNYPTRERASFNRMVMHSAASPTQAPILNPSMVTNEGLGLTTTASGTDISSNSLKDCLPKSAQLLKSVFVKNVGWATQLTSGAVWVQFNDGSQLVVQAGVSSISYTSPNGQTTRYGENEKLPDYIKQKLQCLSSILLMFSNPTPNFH
Kind of assay: Activity (IC50) of the Table 1 compounds as PLK4 inhibitors. To be noted: Table 1, IC50 class. The class given is biochemical.
Turning to `COc1c(Nc2cc(C)[nH]n2)nc(Sc2ccc(NC(=O)C3CC3)cc2)nc1N1CCCCC1`, the 50% inhibitory concentration (IC50) is less than 0.1 µM. The result for `COc1c(Nc2cc(C)[nH]n2)nc(Sc2ccc(NC(=O)C3CC3)cc2)nc1NC(C)C` reads less than 0.1 µM; that for `CNc1nc(Sc2ccc(NC(=O)C3CC3)cc2)nc(Nc2cc(C)[nH]n2)c1OC`, less than 0.1 µM; that for `CCNc1nc(Sc2ccc(NC(=O)C3CC3)cc2)nc(Nc2cc(C)[nH]n2)c1OC`, less than 0.1 µM. With `COc1c(Nc2cc(C)[nH]n2)nc(Sc2ccc(S(=O)(=O)c3cccc([N+](=O)[O-])c3F)cc2F)nc1N1CCOCC1`, the IC50 is less than 0.1 µM.

The compound `COc1c(Nc2cc(C)[nH]n2)nc(Sc2ccc(S(=O)(=O)C(F)c3cccc([N+](=O)[O-])c3F)cc2F)nc1N1CCN(CCN(C)C)CC1` (stereo not drawn) had an IC50 of less than 0.1 µM. The result for `COc1c(Nc2cc(C)[nH]n2)nc(Sc2ccc(C#Cc3cccc([N+](=O)[O-])c3F)cc2F)nc1N1CCOCC1` reads less than 0.1 µM; that for `COc1c(Nc2cc(C)[nH]n2)nc(Sc2ccc(/C=C/c3cccc([N+](=O)[O-])c3F)cc2F)nc1N1CCOCC1`, less than 0.1 µM; that for `COc1c(Nc2cc(C)[nH]n2)nc(Sc2ccc(CCc3cccc([N+](=O)[O-])c3F)cc2F)nc1N1CCOCC1`, less than 0.1 µM.

`COc1c(Nc2cc(C)[nH]n2)nc(Sc2ccc(-c3cc4cccc([N+](=O)[O-])c4o3)cc2F)nc1N1CCOCC1` registered a half-inhibitory concentration (IC50) of 0.1 to 1 µM. The value for `COc1c(Nc2cc(C)[nH]n2)nc(Sc2ccc(C(=O)Cc3cccc([N+](=O)[O-])c3F)cc2F)nc1N1CCOCC1` was less than 0.1 µM. Turning to `COc1c(Nc2cc(C)[nH]n2)nc(Sc2ccc(C(=O)Oc3cccc([N+](=O)[O-])c3F)cc2F)nc1N1CCOCC1`, the IC50 is less than 0.1 µM. Consider `COc1c(Nc2cc(C)[nH]n2)nc(Sc2ccc(S(=O)(=O)C(C)(C)c3cccc([N+](=O)[O-])c3F)cc2F)nc1N1CCOCC1`, for which the IC50 is less than 0.1 µM. The result for `COc1c(Nc2cc(C)[nH]n2)nc(Sc2ccc(NC(=O)c3cccc([N+](=O)[O-])c3)cc2F)nc1N1CCOCC1` reads 0.1 to 1 µM; that for `COc1c(Nc2cc(C)[nH]n2)nc(Sc2ccc(S(=O)(=O)Cc3cccc(C#N)c3F)cc2F)nc1N1CCN(CCN(C)C)CC1`, less than 0.1 µM. The value for `COc1c(Nc2cc(C)[nH]n2)nc(Sc2ccc(S(=O)(=O)C(F)c3cccc(C#N)c3F)cc2F)nc1N1CCOCC1` (stereo not drawn) was less than 0.1 µM; that for `COc1c(Nc2cc(C)[nH]n2)nc(Sc2ccc(S(=O)(=O)Nc3cccc([N+](=O)[O-])c3)cc2F)nc1N1CCOCC1` was less than 0.1 µM.

Consider `COc1c(Nc2cc(C)[nH]n2)nc(Sc2ccc(S(=O)(=O)Cc3cccc([N+](=O)[O-])c3F)cc2F)nc1N1CCCC[C@@H]1CO`, for which the IC50 is less than 0.1 µM. Regarding `COc1c(Nc2cc(C)[nH]n2)nc(Sc2ccc(S(=O)(=O)Cc3cccc([N+](=O)[O-])c3F)cc2F)nc1N1CCC(CCN(C)C)CC1`, the half-inhibitory concentration (IC50) is less than 0.1 µM.

With `COc1c(Nc2cc(C)[nH]n2)nc(Sc2ccc(NC(=O)Cc3cccc([N+](=O)[O-])c3F)cc2F)nc1N1CCOCC1`, the concentration for half-maximal inhibition (IC50) was less than 0.1 µM. The value for `COc1c(Nc2cc(C)[nH]n2)nc(Sc2ccc(S(=O)(=O)C(F)c3cccc([N+](=O)[O-])c3F)cc2F)nc1N1CCC(CCN(C)C)CC1` (stereo not drawn) was less than 0.1 µM; that for `COc1c(Nc2cc(C)[nH]n2)nc(Sc2ccc(S(=O)(=O)C(C)(C)c3cccc([N+](=O)[O-])c3F)cc2F)nc1N1CCCCC1` was less than 0.1 µM. The value for `COc1c(Nc2cc(C)[nH]n2)nc(Sc2ccc(S(=O)(=O)C(C)(C)c3cccc([N+](=O)[O-])c3F)cc2F)nc1N1CCN(CCN(C)C)CC1` was less than 0.1 µM. The compound `COc1c(Nc2cc(C)[nH]n2)nc(Sc2ccc(S(=O)(=O)C(F)c3cccc([N+](=O)[O-])c3F)cc2F)nc1N1CCOC[C@@H]1CO` (stereo partly drawn) came in with an IC50 of less than 0.1 µM. The result for `COc1c(Nc2cc(C)[nH]n2)nc(Sc2ccc(S(=O)(=O)C(F)(F)c3c(F)c(F)cc(F)c3F)cc2F)nc1N1CCOCC1` reads less than 0.1 µM. The value for `COc1c(Nc2cc(C)[nH]n2)nc(Sc2ccc(S(=O)(=O)C(C)(C)c3c(F)c(F)c(C)c(F)c3F)cc2F)nc1N1CCOCC1` was less than 0.1 µM. As to `COc1c(Nc2cc(C)[nH]n2)nc(Sc2ccc(S(=O)(=O)C(C)(C)c3c(F)c(F)c(C)c(F)c3F)cc2F)nc1N1CCN(CCN(C)C)CC1`, the IC50 was less than 0.1 µM. `COc1c(Nc2cc(C)[nH]n2)nc(Sc2ccc(S(=O)(=O)CCc3cccc([N+](=O)[O-])c3F)cc2F)nc1N1CCOCC1` returned an IC50 of less than 0.1 µM. The result for `COc1c(Nc2cc(C)[nH]n2)nc(Sc2ccc(S(=O)(=O)C(C)(C)c3cccc([N+](=O)[O-])c3F)cc2F)nc1N1CCC(CCN(C)C)CC1` reads less than 0.1 µM; that for `COc1c(Nc2cc(C)[nH]n2)nc(Sc2ccc(S(=O)(=O)C(C)(C)c3cccc([N+](=O)[O-])c3F)cc2F)nc1N1CCOC[C@@H]1CO`, less than 0.1 µM; that for `COc1c(Nc2cc(C)[nH]n2)nc(Sc2ccc(S(=O)(=O)C(C)(C)c3cccc(Cl)c3F)cc2F)nc1N1CCOCC1`, less than 0.1 µM. `COc1c(Nc2cc(C)[nH]n2)nc(Sc2ccc(S(=O)(=O)C(C)(C)c3cccc(Br)c3F)cc2F)nc1N1CCN(CCN(C)C)CC1`: the IC50 is less than 0.1 µM. `COc1c(Nc2cc(C)[nH]n2)nc(Sc2ccc(S(=O)(=O)C(C)(C)c3cccc(Cl)c3F)cc2F)nc1N1CCN(CCN(C)C)CC1` gave an IC50 of less than 0.1 µM. The value for `COc1c(Nc2cc(C)[nH]n2)nc(Sc2ccc(S(=O)(=O)C(C)(C)c3cc(F)cc(Cl)c3F)cc2F)nc1N1CCOCC1` was less than 0.1 µM; that for `COc1c(Nc2cc(C)[nH]n2)nc(Sc2ccc(S(=O)(=O)C(F)c3cc(F)cc([N+](=O)[O-])c3F)cc2F)nc1N1CCOCC1` (stereo not drawn) was less than 0.1 µM; that for `COc1c(Nc2cc(C)[nH]n2)nc(Sc2ccc(S(=O)(=O)C(C)(C)c3cccc([N+](=O)[O-])c3F)cc2F)nc1N1CCC(N(C)C)CC1` was less than 0.1 µM. The result for `COc1c(Nc2cc(C)[nH]n2)nc(Sc2ccc(S(=O)(=O)C(C)(C)c3cccc([N+](=O)[O-])c3F)cc2F)nc1N1CCN(C)CC1` reads less than 0.1 µM; that for `COc1c(Nc2cc(C)[nH]n2)nc(Sc2ccc(S(=O)(=O)C(C)(C)c3cccc([N+](=O)[O-])c3F)cc2F)nc1N1CCNCC1`, less than 0.1 µM; that for `COc1c(Nc2cc(C)[nH]n2)nc(Sc2ccc(S(=O)(=O)C(C)(C)c3cccc([N+](=O)[O-])c3F)cc2F)nc1N1CCCC(N(C)C)C1` (stereo not drawn), less than 0.1 µM. The value for `COc1c(Nc2cc(C)[nH]n2)nc(Sc2ccc(S(=O)(=O)C(C)(C)c3cc(F)cc([N+](=O)[O-])c3F)cc2F)nc1N1CCC(CCN(C)C)CC1` was less than 0.1 µM; that for `COc1c(Nc2cc(C)[nH]n2)nc(Sc2ccc(S(=O)(=O)C(C)(C)c3cccc(Cl)c3F)cc2F)nc1N1CCC(CCN(C)C)CC1` was less than 0.1 µM; that for `COc1c(Nc2cc(C)[nH]n2)nc(Sc2ccc(S(=O)(=O)C(C)(C)c3cccc([N+](=O)[O-])c3F)cc2F)nc1N1CCC(CCCN(C)C)CC1` was less than 0.1 µM. For `COc1c(Nc2cc(C)[nH]n2)nc(Sc2ccc(S(=O)(=O)C(C)(C)c3cc(F)cc(Cl)c3F)cc2F)nc1N1CCC(CCN(C)C)CC1`, the IC50 was less than 0.1 µM. `COc1c(Nc2cc(C)[nH]n2)nc(Sc2ccc(S(=O)(=O)C(C)(C)c3cccc([N+](=O)[O-])c3F)cc2F)nc1N1CCC(CN(C)C)CC1` displayed an IC50 of less than 0.1 µM. For the compound `COc1c(Nc2cc(C)[nH]n2)nc(Sc2ccc(S(=O)(=O)C(C)(C)c3cccc([N+](=O)[O-])c3F)cc2F)nc1N1CCC(CC(=O)N(C)C)CC1`, the concentration for half-maximal inhibition (IC50) is less than 0.1 µM.
